This is an account of results in patent publication US8227501B2, “1,6-dihydro-2H-3-oxa-6-aza-as-indacene compounds” (Ferrer Internacional, S.A., priority 2008, dated 2012).

The test deals with T1, recombinant human-MT1 receptor (Homo sapiens, UniProt P48039).
T1 construct: expressed in transfected cells; host or cells: unnamed cell line stably overexpressing human MT1, co-expressing mitochondrial apoaequorin and Gα16
Kind of test: In vitro MT1 screening, agonist activity (AequoScreen aequorin luminescence). The class given is cell-based. To be noted: percentage of activity relative to the reference agonist at the EC100 concentration; for activation at 0.001 µM: read-out: Agonism percentages of MT1, 1 nM; for activation at 0.1 µM: read-out: Agonism percentages of MT1, 100 nM. From the text:
To proceed with compound screening over MT1 receptor, a cell line characterised by a stable overexpression of recombinant human-MT1 receptor was used. This line co-expresses mitochondrial apoaequorin and subunit Gα16.
Subunit Gα16 belongs to […], in which intracelular signal transduction is produced via phospholipase (PLC). Activation of PLC produces an increment of inositol-triphosphate levels and intracellular calcium levels. This increment in calcium levels is, therefore, independent and full compatible with the signal transduction of MT1 receptor.
After binding to calcium, aequorin carries out the oxidation of colenterazine to colenteramide, a luminescent reaction.
Assay protocol for agonist screening consists in an overnight incubation of cells and colenterazine, being performed by an AequoScreen™ system instrument, PerkinElmer, USA. After that this mixture was injected over a plate that contains the solution of the compounds to screen and luminescence was immediately read. Only in case of antagonism screening, after 15-30 min of the first injection the reference agonist was added in the same well, and then luminescence was measured.
Agonist activity was calculated as percentage of activity relative to the reference agonist at the EC100 concentration. Activity of antagonists was expressed as the inhibition percentage over the activity of reference agonist at its EC80, concentration.

T1 sequence (P48039 whole entry): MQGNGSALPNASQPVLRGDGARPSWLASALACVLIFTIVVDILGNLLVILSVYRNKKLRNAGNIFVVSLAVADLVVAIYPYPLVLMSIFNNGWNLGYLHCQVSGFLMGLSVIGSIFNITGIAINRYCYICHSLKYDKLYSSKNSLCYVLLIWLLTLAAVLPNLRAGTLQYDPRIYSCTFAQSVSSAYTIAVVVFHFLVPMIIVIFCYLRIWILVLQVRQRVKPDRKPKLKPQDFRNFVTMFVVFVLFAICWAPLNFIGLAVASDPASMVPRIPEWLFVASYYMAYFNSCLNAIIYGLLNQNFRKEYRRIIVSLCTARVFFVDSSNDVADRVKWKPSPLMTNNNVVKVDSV

As to `CC(=O)NCCc1c[nH]c2cc(F)c3c(c12)CCO3` [Compound 13, N-[2-(4-Fluoro-1,6-dihydro-2H-3-oxa-6-aza-as-indacen-8-yl)-ethyl]-acetamide], under “1 nM compound”, the activation at 0.001 µM was 37.7%. The activation at 0.1 µM (100 nM compound) is 92.9%.
As to `CCC(=O)NCCc1c[nH]c2cc(F)c3c(c12)CCO3` [Compound 14, N-[2-(4-Fluoro-1,6-dihydro-2H-3-oxa-6-aza-as-indacen-8-yl)-ethyl]-propionamide], the activation at 0.001 µM (1 nM compound) is 55.1%. In addition, the activation at 0.1 µM (100 nM compound) is 102%.
Turning to `CCCC(=O)NCCc1c[nH]c2cc(F)c3c(c12)CCO3` [Compound 15, N-[2-(4-Fluoro-1,6-dihydro-2H-3-oxa-6-aza-as-indacen-8-yl)-ethyl]-butiramide], the “Agonism percentages of MT1, 1 nM” value (1 nM compound) came out at 43.0%. In addition, under “100 nM compound”, the “Agonism percentages of MT1, 100 nM” value was 108.2%.
For the compound `CC(C)C(=O)NCCc1c[nH]c2cc(F)c3c(c12)CCO3` [Compound 16, N-[2-(4-Fluoro-1,6-dihydro-2H-3-oxa-6-aza-as-indacen-8-yl)-ethyl]-isobutyramide], the activation at 0.001 µM (1 nM compound) amounted to 23%. Also, the activation at 0.1 µM (100 nM compound) turned out to be 82.3%.
The like results for `O=C(NCCc1c[nH]c2cc(F)c3c(c12)CCO3)C1CC1` [Compound 17, Cyclopropanecarboxylic acid [2-(4-fluoro-1,6-dihydro-2H-3-oxa-6-aza-as-indacen-8-yl)-ethyl]-amide] were, in that order, 43.8% and 93.2%.
Consider `O=C(NCCc1c[nH]c2cc(F)c3c(c12)CCO3)C(F)(F)F` [Compound 18, 2,2,2-Trifluoro-N-[2-(4-fluoro-1,6-dihydro-2H-3-oxa-6-aza-as-indacen-8-yl)-ethyl]-acetamide], for which the activation at 0.001 µM (1 nM compound) worked out at 59.8%. Further, where the note is “100 nM compound”, the activation at 0.1 µM worked out at 105%.
With `CCCC(=O)NCC(C)c1c[nH]c2cc(F)c3c(c12)CC(C)O3` (centres unmarked) [Compound 19, N-[2-(4-Fluoro-2-methyl-1,6-dihydro-2H-3-oxa-6-aza-as-indacen-8-yl)-propyl]-butyramide], the activation at 0.001 µM (1 nM compound) turned out to be 27.8%. In addition, the activation at 0.1 µM (100 nM compound) was 96.8%.
The like results for `CCC(=O)NCC(C)c1c[nH]c2cc(F)c3c(c12)CC(C)O3` (centres unmarked) [Compound 20, N-[2-(4-Fluoro-2-methyl-1,6-dihydro-2H-3-oxa-6-aza-as-indacen-8-yl)-propyl]-propionamide] were, in that order, 30.2% and 94.3%.
With `CC(=O)NCC(C)c1c[nH]c2cc(F)c3c(c12)CC(C)O3` (centres unmarked) [Compound 21, N-[2-(4-Fluoro-2-methyl-1,6-dihydro-2H-3-oxa-6-aza-as-indacen-8-yl)-propyl]-acetamide], the activation at 0.001 µM (1 nM compound) was 43.2%. Further, the activation at 0.1 µM (100 nM compound) came to 92.6%.
For `CC(=O)NCCc1c[nH]c2cc(F)c3c(c12)CC(C)O3` (centres unmarked) [Compound 22, N-[2-(4-Fluoro-2-methyl-1,6-dihydro-2H-3-oxa-6-aza-as-indacen-8-yl)-ethyl]-acetamide], the activation at 0.001 µM (1 nM compound) amounted to 50.5%. In addition, under “100 nM compound”, the activation at 0.1 µM stood at 96.8%.
For `CCC(=O)NCCc1c[nH]c2cc(F)c3c(c12)CC(C)O3` (centres unmarked) [Compound 23, N-[2-(4-Fluoro-2-methyl-1,6-dihydro-2H-3-oxa-6-aza-as-indacen-8-yl)-ethyl]-propionamide], the activation at 0.001 µM (1 nM compound) worked out at 39.1%. Under “100 nM compound”, the activation at 0.1 µM was determined as 99.7%.
The like results for `CCCC(=O)NCCc1c[nH]c2cc(F)c3c(c12)CC(C)O3` (centres unmarked) [Compound 24, N-[2-(4-Fluoro-2-methyl-1,6-dihydro-2H-3-oxa-6-aza-as-indacen-8-yl)-ethyl]-butyramide] were, in that order, 42.1% and 99.8%.
For `CCCCC(=O)NCCc1c[nH]c2cc(F)c3c(c12)CC(C)O3` (centres unmarked) [Compound 25, Pentanoic acid [2-(4-fluoro-2-methyl-1,6-dihydro-2H-3-oxa-6-aza-as-indacen-8-yl)-ethyl]-amide], the activation at 0.001 µM (1 nM compound) is 31.9%. Besides, where the note is “100 nM compound”, the activation at 0.1 µM came to 98%.
